Results reported in patent US8268809B2, “Kinase inhibitors for preventing or treating pathogen infection and method of use thereof” (priority 2006, dated 2012).
Entries after “also recorded” stand apart in the source; their conditions may differ.

What follows are compounds tested on vaccinia virus.
Type: cell-based
Throughout, for VACCINIA PLAQUE ASSAY 2: test concentration or dose not given here.

| SMILES | VACCINIA PLAQUE ASSAY 2 | Plaque phenotype due to drug treatment (FIGS. 1, 2, 4) | VACCINIA Plaque Assay | Class category of infected monolayers in plaque assay |
| --- | --- | --- | --- | --- |
| Cc1ccc(-n2c(=O)[nH]c3c(C(N)=O)nc(-c4ccc(-c5cccs5)s4)nc32)cc1 [dm-I-184] | SLIGHTLY SMALLER PLAQUES |  |  |  |
| CCOC(=O)c1ccc(-c2ccc3c(-c4ccc(C(=O)OC)cc4)n[nH]c3n2)cc1 [APcK-32] |  | small plaque and large comets; also recorded: small plaques with large comets | LARGE COMETS |  |
| CCOC(=O)c1ccc(-c2n[nH]c3nc(-c4cc(OC)cc(OC)c4)ccc23)cc1 [APcK-108] | SMALL PLAQUES | pinpoint plaque formations; also recorded: pinpoint plaques | PINPOINT PLAQUES | Class III |
| CCOC(=O)c1ccc(-c2n[nH]c3nc(-c4cccc(NC(C)=O)c4)ccc23)cc1 [APcK-105] | PINPOINT PLAQUES | no pinpoint plaque formed; also recorded: no plaques | NO PLAQUES | Class III |
| COc1ccccc1NS(=O)(=O)c1cccc(Nc2cc(-c3ccc(O)cc3)ncn2)c1 [Eph2_wbz 102] | no plaques |  | NO PLAQUES | Class III |
| COc1ccccc1NS(=O)(=O)c1cccc(Nc2cc(-c3ccc(OC(C)=O)cc3)ncn2)c1 [Eph2_wbz 105] | NO PLAQUES | small plaques with comets | SMALLER PLAQUES THAN WT | Class III |
| COC(=O)c1ccc(-c2cc(Nc3ccccc3OC)ncn2)cc1OC [Eph2_wbz 211] | SLIGHTLY SMALLER PLAQUES |  | SMALL PLAQUES Comets? | Class II |
| COc1cccc(-c2cnc3c(Nc4ccccc4)nccn23)c1 [LG2-85] | NO PLAQUES |  | PINPOINT PLAQUES | Class III |
| O=C(Nc1cccc(-c2ccc(Cl)nn2)c1)c1cccc([N+](=O)[O-])c1 [YYB19] | NO PLAQUES |  | PINPOINT PLAQUES | Class III |
| O=C(Nc1cccc(-c2ccc(Cl)nn2)c1)Oc1ccccc1 [LG2-111] |  |  | PINPOINT PLAQUES |  |
| COc1cccc(-c2cc(Nc3cccc(S(=O)(=O)Nc4ccccc4OC)c3)ncn2)c1 [Eph2_wbz 112] | PINPOINT |  | SMALL PLAQUES | Class III |
| COc1cc(-c2cnc3c(Nc4ccccc4)nccn23)ccc1O [LG2-62] | SMALL PLAQUES |  | SMALLER PLAQUES THAN WT | Class II |
| CC(=O)Nc1cccc(-c2ccc3c(-c4ccc(Cl)cc4Cl)n[nH]c3n2)c1 [APcK-40] | PINPOINT PLAQUES |  | SLIGHTLY SMALLER PLAQUES | Class III |
| COc1cc(C(=O)Nc2cccc(-c3ccc4nnc(-c5ccccc5)n4n3)c2)cc(OC)c1OC [YYB21] |  | damaged monolayer |  |  |
| Cc1ccc(NC(=O)c2ccc(CN3CCN(CCF)CC3)cc2)cc1Nc1nccc(-c2cccnc2)n1 [STLF2] | NO PLAQUES |  | PIN POINT PLAQUES | Class III |
| CN1CCOc2cc(/C=C3\SC(=O)NC3=O)ccc21 [AS-605091, reference compound] | PINPOINT PLAQUES |  | SMALL PLAQUES | Class III |
| COc1ccc(-c2n[nH]c3nc(-c4ccc(O)cc4OC)ccc23)cc1 [APcK-31] | SMALL PLAQUES |  |  |  |
| CCOC(=O)c1ccc(-c2n[nH]c3nc(-c4ccc5cc[nH]c5c4)ccc23)cc1 [APcK-58] | NO PLAQUES |  |  |  |
